Experimental data reported in ChEMBL document CHEMBL1201862, “PubChem BioAssay data set” (2004).
The source made the active and inactive calls.

Columns and labels:
[1] = molecular target: Dual specificity protein phosphatase 3 (Homo sapiens, UniProt P51452); assay: SAR VHR1 Fluorescent Assay for In Vitro dose response studies Set 3. [Related pubchem assays (depositor defined):AID1654, AID1661, AID1878]; format: functional
[2] = molecular target: Nuclear receptor subfamily 0 group B member 1 (Homo sapiens, UniProt P51843); assay: Luminescence-based cell-based high throughput dose response assay for inhibitors of the orphan nuclear receptor subfamily 0, group B, member 1 (DAX1; NR0B1). [Related pubchem assays (depositor defined):AID504766, AID504790]; format: functional
Sequence of Nuclear receptor subfamily 0 group B member 1 (P51843 whole entry): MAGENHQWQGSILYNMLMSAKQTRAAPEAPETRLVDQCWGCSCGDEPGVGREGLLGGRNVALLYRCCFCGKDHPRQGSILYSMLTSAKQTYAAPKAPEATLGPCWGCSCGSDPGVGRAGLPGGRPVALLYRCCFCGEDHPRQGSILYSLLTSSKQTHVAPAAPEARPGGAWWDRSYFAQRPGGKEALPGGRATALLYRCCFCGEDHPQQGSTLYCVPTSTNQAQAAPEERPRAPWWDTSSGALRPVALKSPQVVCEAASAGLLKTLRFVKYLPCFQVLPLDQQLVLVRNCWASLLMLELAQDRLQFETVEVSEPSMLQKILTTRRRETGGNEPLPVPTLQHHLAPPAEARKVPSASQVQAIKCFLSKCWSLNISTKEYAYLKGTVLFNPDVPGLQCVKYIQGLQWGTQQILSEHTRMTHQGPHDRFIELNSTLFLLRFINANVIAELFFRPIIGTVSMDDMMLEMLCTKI

[3] = test system: HEK293; assay: cells; format: functional, cell-based; settings: Homo sapiens
[4] = Fluorescence polarization-based biochemical high throughput dose response assay for activators of the Protein Kinase A-R2B (PKA-R2B) complex. [Related pubchem assays (depositor defined):AID504700, AID504704, AID504796, AID504797]
[5] = Fluorescence polarization-based biochemical high throughput dose response assay for activators of the Protein Kinase A-R1A (PKA-R1A) complex. [Related pubchem assays (depositor defined):AID504704, AID504707, AID504799, AID504800]
[6] = molecular target: T1, ORF 73 (Human herpesvirus 8, UniProt O40947); assay: inhibitors of C-LANA binding to LBS DNA, dose response, biochemical, fluorescence polarization, cherry-picked samples (AID 504725); parameters: species or system Human gammaherpesvirus 8;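 note: fluorescence polarization of a labeled DNA duplex reporting LANA DNA binding; potency is for inhibitors that block LANA binding to the DNA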
T1 sequence (O40947 whole entry): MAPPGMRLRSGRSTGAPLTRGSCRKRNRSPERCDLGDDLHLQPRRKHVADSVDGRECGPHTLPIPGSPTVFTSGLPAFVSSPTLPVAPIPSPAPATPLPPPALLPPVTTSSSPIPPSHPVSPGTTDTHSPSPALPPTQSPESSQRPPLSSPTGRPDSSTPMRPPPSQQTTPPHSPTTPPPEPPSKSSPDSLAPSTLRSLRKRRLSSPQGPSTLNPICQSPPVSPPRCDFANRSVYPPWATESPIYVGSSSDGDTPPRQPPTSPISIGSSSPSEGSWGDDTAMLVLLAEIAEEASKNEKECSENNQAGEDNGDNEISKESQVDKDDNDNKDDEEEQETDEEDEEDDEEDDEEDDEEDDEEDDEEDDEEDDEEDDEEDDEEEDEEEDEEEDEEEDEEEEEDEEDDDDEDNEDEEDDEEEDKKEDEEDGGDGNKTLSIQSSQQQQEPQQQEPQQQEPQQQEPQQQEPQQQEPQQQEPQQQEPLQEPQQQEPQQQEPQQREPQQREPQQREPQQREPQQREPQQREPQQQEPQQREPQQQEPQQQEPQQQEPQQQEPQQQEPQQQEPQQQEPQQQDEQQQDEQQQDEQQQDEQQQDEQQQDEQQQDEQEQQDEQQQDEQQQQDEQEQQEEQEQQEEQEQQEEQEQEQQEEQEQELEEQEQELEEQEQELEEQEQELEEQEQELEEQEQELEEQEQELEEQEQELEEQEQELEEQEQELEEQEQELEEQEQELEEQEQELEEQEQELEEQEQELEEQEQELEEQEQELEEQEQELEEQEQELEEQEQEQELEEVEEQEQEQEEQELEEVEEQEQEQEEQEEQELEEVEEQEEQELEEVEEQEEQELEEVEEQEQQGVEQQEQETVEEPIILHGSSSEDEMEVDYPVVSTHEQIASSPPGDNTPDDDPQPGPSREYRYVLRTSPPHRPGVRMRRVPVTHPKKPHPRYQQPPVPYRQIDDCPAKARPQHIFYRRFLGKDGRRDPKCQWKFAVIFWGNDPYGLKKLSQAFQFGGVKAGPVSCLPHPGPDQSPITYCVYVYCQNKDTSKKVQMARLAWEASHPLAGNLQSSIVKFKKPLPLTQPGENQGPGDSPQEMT

[7] = molecular target: Troponin, cardiac muscle (Homo sapiens, UniProt P19429+P45379+P63316); assay: Fluorescence-based biochemical high throughput dose response assay for activators of the calcium sensitivity of cardiac Regulated Thin Filaments (RTF). [Related pubchem assays (depositor defined):AID493008, AID493018, AID504382, AID504383]; format: protein-complex assay
[8] = molecular target: T2, Insulin-degrading enzyme (Homo sapiens, UniProt P14735); assay: activators of recombinant IDE enzyme, dose response, counter-screen for IDE activator project, biochemical, fluorescence polarization (AID 588681)
T2 sequence (P14735 whole entry): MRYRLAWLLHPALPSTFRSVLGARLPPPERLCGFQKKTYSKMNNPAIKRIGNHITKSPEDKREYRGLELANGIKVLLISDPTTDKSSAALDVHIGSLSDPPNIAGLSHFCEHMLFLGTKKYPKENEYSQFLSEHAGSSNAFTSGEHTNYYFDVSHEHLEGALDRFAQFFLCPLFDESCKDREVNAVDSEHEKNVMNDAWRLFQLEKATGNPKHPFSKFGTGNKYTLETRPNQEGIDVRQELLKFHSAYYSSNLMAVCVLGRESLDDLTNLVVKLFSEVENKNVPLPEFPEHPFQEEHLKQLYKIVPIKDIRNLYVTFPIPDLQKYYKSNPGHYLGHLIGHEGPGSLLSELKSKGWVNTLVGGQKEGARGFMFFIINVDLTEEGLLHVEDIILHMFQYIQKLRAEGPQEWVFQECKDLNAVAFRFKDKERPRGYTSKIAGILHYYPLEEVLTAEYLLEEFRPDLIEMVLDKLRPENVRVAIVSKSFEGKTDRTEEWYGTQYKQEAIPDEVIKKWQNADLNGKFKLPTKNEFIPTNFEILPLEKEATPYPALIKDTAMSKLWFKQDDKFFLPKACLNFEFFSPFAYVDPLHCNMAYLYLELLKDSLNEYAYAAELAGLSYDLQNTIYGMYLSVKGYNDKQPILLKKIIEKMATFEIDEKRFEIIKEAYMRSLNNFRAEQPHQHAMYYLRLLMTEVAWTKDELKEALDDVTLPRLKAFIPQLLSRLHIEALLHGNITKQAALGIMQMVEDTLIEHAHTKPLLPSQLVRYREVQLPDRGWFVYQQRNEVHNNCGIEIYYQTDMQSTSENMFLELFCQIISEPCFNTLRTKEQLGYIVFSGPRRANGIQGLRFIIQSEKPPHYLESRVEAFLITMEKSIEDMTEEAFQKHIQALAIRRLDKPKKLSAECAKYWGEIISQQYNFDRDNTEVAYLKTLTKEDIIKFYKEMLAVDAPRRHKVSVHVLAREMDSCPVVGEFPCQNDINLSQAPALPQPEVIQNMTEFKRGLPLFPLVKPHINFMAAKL

[9] = molecular target: T3, Fibrinogen beta chain (Homo sapiens, UniProt P02675); assay: Fluorescence polarization-based biochemical high throughput dose response assay to identify inhibitors that disrupt the binding of a cyclic peptide (Tn6) to the fibrin proteolytic product D-Dimer and fragment E complex [DD(E )].
T3 sequence (P02675 whole entry, the tested form may be a part): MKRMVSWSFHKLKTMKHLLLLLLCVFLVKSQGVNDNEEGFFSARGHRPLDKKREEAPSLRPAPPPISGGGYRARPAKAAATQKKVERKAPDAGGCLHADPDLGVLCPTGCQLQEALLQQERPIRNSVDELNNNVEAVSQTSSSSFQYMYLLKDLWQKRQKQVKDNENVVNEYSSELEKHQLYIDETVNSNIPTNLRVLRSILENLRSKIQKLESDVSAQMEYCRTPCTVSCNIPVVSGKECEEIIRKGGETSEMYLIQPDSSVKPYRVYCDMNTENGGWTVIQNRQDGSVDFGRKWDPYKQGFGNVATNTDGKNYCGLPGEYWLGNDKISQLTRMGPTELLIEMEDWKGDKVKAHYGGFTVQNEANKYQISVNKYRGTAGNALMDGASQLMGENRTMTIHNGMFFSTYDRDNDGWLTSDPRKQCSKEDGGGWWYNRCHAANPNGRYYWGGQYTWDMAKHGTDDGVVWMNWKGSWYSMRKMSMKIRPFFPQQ

[10] = test system: HEK293; assay: HEK cell cytotoxicity by LDH release, dose response, cytotoxicity control for IDE activator project, fluorescence, HEK cells (AID 588440); format: functional, cell-based; settings: Homo sapiens;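 note: cytotoxicity by LDH release measuring loss of membrane integrity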
[11] = molecular target: T3, Fibrinogen beta chain; assay: Fluorescence polarization-based biochemical high throughput dose response assay to identify inhibitors that disrupt the binding of a cyclic peptide (Tn7) to the fibrin proteolytic product D-Dimer and fragment E complex [DD(E )].
[12] = test system: HEK293; assay: optical interference in Abeta FP readout, dose response, artefact control for IDE activator project, biochemical, fluorescence polarization (AID 588442); format: functional, cell-based; settings: Homo sapiens
[13] = molecular target: T2, Insulin-degrading enzyme; assay: activators of endogenous IDE in HEK cells, dose response, cell-based, fluorescence polarization (AID 588439); format: functional
[14] = molecular target: UDP-galactopyranose mutase (Mycobacterium tuberculosis, UniProt P9WIQ1); assay: Inhibitors of Mycobacterium tuberculosis UDP-galactopyranose mutase (UGM) enzyme Measured in Biochemical System Using Plate Reader - 2105-02_Inhibitor_Dose_CherryPick_Activity. [Related pubchem assays (depositor defined):AID504439]
Sequence of UDP-galactopyranose mutase (P9WIQ1 whole entry): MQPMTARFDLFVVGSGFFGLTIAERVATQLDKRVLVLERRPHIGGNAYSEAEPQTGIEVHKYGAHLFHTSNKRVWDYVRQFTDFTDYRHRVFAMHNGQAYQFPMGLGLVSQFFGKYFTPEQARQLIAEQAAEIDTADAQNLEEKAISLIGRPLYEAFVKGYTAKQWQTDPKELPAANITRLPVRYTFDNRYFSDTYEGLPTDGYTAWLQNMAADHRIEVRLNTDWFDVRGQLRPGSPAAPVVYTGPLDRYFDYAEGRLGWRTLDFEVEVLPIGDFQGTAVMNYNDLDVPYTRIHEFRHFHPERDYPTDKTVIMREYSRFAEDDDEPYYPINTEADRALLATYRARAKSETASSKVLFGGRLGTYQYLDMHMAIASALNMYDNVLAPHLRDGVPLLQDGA

[15] = molecular target: T4, Streptokinase A (Streptococcus pyogenes serotype M1, UniProt P10520); assay: S. pyogenes streptokinase expression inhibitors, potency, dose response, plasminogen activation absorbance, OD405 (AID 1914); format: functional, Streptococcus pyogenes M1 GAS;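 note: secreted streptokinase activity via plasminogen activation per viability signal from cell pellet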
T4 sequence (P10520 whole entry): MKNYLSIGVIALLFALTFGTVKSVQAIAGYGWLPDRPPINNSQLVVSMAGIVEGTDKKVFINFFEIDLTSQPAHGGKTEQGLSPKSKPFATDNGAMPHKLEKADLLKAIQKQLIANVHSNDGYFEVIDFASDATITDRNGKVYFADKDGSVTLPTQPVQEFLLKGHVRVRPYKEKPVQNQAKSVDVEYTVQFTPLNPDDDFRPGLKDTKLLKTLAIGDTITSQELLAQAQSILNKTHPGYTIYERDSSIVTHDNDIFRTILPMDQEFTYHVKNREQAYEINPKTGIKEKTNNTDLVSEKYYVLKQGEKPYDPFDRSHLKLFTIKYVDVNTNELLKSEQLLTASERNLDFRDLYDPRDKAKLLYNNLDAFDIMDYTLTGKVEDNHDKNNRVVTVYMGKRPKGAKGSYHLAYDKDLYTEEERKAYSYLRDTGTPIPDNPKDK

[16] = molecular target: Cysteine protease ATG4B (Homo sapiens, UniProt Q9Y4P1); format: functional;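 note: Fluorescence-based dose-response confirmation assay measuring inhibition of ATG4B activity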
Sequence of Cysteine protease ATG4B (Q9Y4P1 whole entry): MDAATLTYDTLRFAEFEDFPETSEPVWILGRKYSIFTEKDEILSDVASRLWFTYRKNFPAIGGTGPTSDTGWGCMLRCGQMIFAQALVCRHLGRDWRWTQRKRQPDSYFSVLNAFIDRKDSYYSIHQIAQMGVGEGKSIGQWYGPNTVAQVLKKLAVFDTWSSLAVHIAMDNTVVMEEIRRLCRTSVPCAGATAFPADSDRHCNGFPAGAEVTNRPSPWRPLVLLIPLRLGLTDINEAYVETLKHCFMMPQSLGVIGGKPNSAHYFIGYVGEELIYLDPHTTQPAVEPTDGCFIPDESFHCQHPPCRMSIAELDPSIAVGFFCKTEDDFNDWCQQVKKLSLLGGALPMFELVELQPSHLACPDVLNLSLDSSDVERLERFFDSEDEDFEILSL

[17] = molecular target: Phospholipase A2 (Homo sapiens, UniProt P04054); format: functional;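 note: confirmatory dose-response counterscreen on phospholipase A2, testing hits that came from an ultra-high-throughput screen for ATG4B inhibitors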
Sequence of Phospholipase A2 (P04054 whole entry): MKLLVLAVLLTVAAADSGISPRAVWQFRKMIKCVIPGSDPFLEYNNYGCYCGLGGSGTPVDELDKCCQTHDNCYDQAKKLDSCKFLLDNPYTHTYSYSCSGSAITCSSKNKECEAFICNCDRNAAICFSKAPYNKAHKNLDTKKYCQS

[18] = test system: Streptococcus sp. 'group A'; assay: growth inhibition of control SK(-) GAS strain, dose response, counter-screen for streptokinase expression inhibitor project, luminescence, kanamycin, BacTiterGlo, confirmation (AID 1900); format: functional, organism-based
[19] = test system: Streptococcus; assay: Group A Streptococcus viability loss, dose response, counter-screen for streptokinase expression inhibitor project, luminescence, BacTiterGlo (AID 1915); format: functional, organism-based;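 note: potency for reduction of bacterial viability or growth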
[20] = test system: NIH3T3; assay: cytotoxicity in NIH-3T3 fibroblasts, dose response, cytotoxicity control for antifungal drug resistance project, cell-based, Alamar Blue, fluconazole, dry powder (AID 488809); format: functional; settings: Mus musculus
[21] = test system: Candida albicans; assay: growth inhibition of resistant C. albicans, dose response, CaCi-8, fluconazole, Alamar Blue, dry powder (AID 488807); format: functional, organism-based
[22] = molecular target: T5, Endoribonuclease toxin MazF (Escherichia coli K-12, UniProt P0AE70); assay: MazF endoribonuclease activators, SAR follow-up, biochemical, fluorescence, single-stranded RNA substrate (AID 588603); format: functional
T5 sequence (P0AE70 whole entry): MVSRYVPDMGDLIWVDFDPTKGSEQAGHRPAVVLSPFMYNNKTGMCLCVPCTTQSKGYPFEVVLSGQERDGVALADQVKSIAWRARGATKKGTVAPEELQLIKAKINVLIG

[23] = molecular target: T5, Endoribonuclease toxin MazF; assay: SAR analysis of small molecule activators of the MazEF TA System via a fluorescence-based single-stranded RNase assay counterscreen. [Related pubchem assays (depositor defined):AID504720, AID504743]; format: functional
[24] = molecular target: T5, Endoribonuclease toxin MazF; assay: MazF toxin RNase activators, dose response, biochemical, fluorescence, single-stranded RNA substrate, uHTS hits (AID 588481); format: functional
[25] = test system: MEF; assay: SAR analysis of small molecule cytotoxicity of MazEF TA System activators in embryonic fibroblast (MEF) cells. [Related pubchem assays (depositor defined):AID504720, AID504743]; format: functional; settings: Mus musculus
[26] = molecular target: T5, Endoribonuclease toxin MazF; assay: fluorescent RNA oligo signal without MazF, dose response, counter-screen for MazEF activator project, biochemical, fluorescence, single-stranded RNase substrate (AID 588502); format: functional

Sequence of Dual specificity protein phosphatase 3 (P51452 whole entry): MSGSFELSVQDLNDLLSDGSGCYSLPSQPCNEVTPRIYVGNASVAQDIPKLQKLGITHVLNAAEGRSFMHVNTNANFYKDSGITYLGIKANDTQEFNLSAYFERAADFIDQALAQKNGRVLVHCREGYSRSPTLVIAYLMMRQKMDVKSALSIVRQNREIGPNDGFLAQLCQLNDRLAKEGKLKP

COc1ccc(C(=O)Nc2cc(C)nn2-c2nc3ccccc3s2)cc1
IC50 [1]: 36.3 µM (active)

COc1ccc(N2C(=O)C3C(c4ccc(OC)cc4O)NC(Cc4ccccc4)(C(=O)O)C3C2=O)cc1 (stereo unspecified)
IC50 [2]: > 67.5 µM (inactive)
IC50 [3]: > 67.5 µM (inactive)

Nc1nc(O)c2nc(Br)n([C@@H]3O[C@@H]4COP(=O)(O)O[C@H]4[C@H]3O)c2n1
EC50 [4]: 2.15 µM (active)
EC50 [5]: 7.83 µM (active)

Oc1ccc2ccc3cccc[n+]3c2c1
AC50 [6]: 1.61 µM (active)
EC50 [7]: 1.21 µM (active)
EC50 [8]: > 54.7 µM (inactive)
IC50 [9]: > 83.3 µM (inactive)
IC50 [10]: > 89.2 µM (inactive)
IC50 [11]: > 9.26 µM (active)
EC50 [12]: > 54.7 µM (inactive)
EC50 [13]: > 54.7 µM (inactive)
AC50 [14]: 3.84 µM (active)

COc1cc(/C=C2\S/C(=N\c3ccccc3)N(CCc3c[nH]c4ccccc34)C2=O)ccc1OC(C)C(=O)O (stereo unspecified)
EC50 [15]: 4.12 µM (active)
IC50 [16]: 8.13 µM (active)
IC50 [17]: 5.47 µM (active)
EC50 [18]: 0.943 µM (active)
EC50 [19]: 11.5 µM (active)

CC1CCN(C(=O)Cn2c3ccc(F)cc3c3nc4n(c(=O)c32)CCCS4)CC1
AC50 [20]: 41.8 µM (active)
AC50 [21]: 2.96 µM (active)

CCN1C(C)=C(C)S/C1=C1\SC(=S)N(C2CCCCC2)C1=O
EC50 [22]: 22.4 µM (inactive)
EC50 [23]: > 99 µM (inactive)
EC50 [24]: 29.1 µM (inactive)
CC50 [25]: > 99 µM (inactive)
EC50 [26]: > 99 µM (inactive)
